Results as given in patent publication US20130302782A1, “Methods for the Phenotypic Detection of HCV Inhibitor Resistant Subpopulations” (Laboratory Corporation of America Holdings, priority 2011, published 2013).

Test system: HCV replicon RTVs containing the NS5B region of Con1 or H77 reference and SDM mutants
Test: PhenoSense HCV NS5B Assay: luciferase replicon resistance test vector inhibitor susceptibility in Huh7 cells
Assay type: cell-based, hepatitis C virus
Conditions: MT:WT RTV mixtures 0-100% mutant; control inhibitor
Description: RTV RNA was electroporated into a Huh7 cell line, and electroporated cells were incubated in the absence and presence of serially diluted inhibitors. RNA input was monitored by measuring the amount of luciferase activity produced in the electroporated cells at 4 hours post-electroporation. Luciferase activity is expressed as relative light units (RLU). Replication capacity (RC) was determined by evaluating luciferase activity at 72-96 hours postelectroporation in the absence of inhibitor, relative to RNA input and a control reference replicon RTV (Con1). A replication defective Con1 replicon (Con1 polymerase defective) was utilized to determine assay background (data not shown) Inhibitor susceptibility was determined by evaluating the ability of RTVs to replicate in the absence and presence of inhibitor at 72-96 hours post-electroporation. […]
Assay accuracy was assessed by evaluating the HCV polymerase inhibitor susceptibility of RTVs containing the NS5B region of well-characterized subtype 1a (H77) and 1b (Con1) reference sequences and subtype 1a and 1b reference sequences engineered by site-directed mutagenesis (SDM) to contain mutations that confer reduced susceptibility to inhibitors of HCV RdRp (FIG. 3) Inhibitor susceptibility data (IC50-FC and IC95-FC) were analyzed for concordance with phenotypic data reported in the scientific literature. […]

interferon [INF]
susceptibility as a function of the proportion of MT RTV within a mixture: not affected
